Biological target: T1, Aurora kinase A (Homo sapiens, UniProt O14965)
T1 sequence (O14965 whole entry): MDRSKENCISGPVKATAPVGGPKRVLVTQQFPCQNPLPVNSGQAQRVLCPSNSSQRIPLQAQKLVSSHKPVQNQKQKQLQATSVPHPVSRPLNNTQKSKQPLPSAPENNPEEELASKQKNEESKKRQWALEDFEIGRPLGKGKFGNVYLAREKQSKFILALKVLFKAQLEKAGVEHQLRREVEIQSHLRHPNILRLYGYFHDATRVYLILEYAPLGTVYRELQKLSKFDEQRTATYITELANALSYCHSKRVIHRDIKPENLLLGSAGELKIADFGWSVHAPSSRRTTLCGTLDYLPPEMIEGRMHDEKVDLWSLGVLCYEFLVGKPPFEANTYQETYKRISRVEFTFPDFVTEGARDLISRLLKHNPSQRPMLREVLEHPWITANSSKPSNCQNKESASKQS
Experiment: Inhibition of Aurora A

IC50 [nM]	Compound
3900	CCCN(CCC)S(=O)(=O)c1ncc(C(=O)Nc2ncc(Nc3ncnc4cc(OCCCN5CCOCC5)c(OC)cc34)cn2)cn1
70	COc1cc2c(Nc3cnc(NC(=O)c4ccc(Cc5ccccc5)c(Br)c4)nc3)ncnc2cc1OCCCN1CCOCC1
0.8	COc1cc2c(Nc3cnc(NC(=O)c4ccccc4)nc3)ncnc2cc1OC[C@@H](O)CN1CCCCC1

— ChEMBL document CHEMBL1137239, “Accurate prediction of the relative potencies of members of a series of kinase inhibitors using molecular docking and MM-GBSA scoring” (J Med Chem, 2006)
